Measured values: article PMC12677699, “Utilizing Proteolytic‐Resistant Nano‐Short Peptide Based on Naphthyl Tail‐Anchored to Combat Bacterial Infections” (Advanced Science, 2025)
Converted amounts (≈) assume the structure as drawn. Non-standard residues stand in square brackets, D forms with d. Residues, ends and D or L forms follow the SMILES beside them. ξ: configuration not given here. ξAhp(2) = CCCCCC(N)C(=O)O

What was measured:
S. pullorum C7913 = type: cell-based
Experimental: (§1) The MIC values of the nano‐short peptides were determined according to standard protocols.^[ [63] ^] Bacterial strains were revived from cryopreservation and cultured in Mueller–Hinton broth (MHB) to logarithmic growth phase, then diluted to a final density of 0.5–1 × 10⁶ CFU mL^−1. Serial dilutions of the nano‐short peptides were prepared in 0.2% bovine serum albumin (BSA) using a 96‐well plate format. Equal volumes of peptide solutions and bacterial suspensions were combined and incubated at 37 °C for 20–22 h. Bacterial growth was assessed by measuring absorbance at 492 nm, with MHB alone (negative control) and untreated bacterial suspension (positive control) included for reference.

S. aureus ATCC 29213 [1] = assay: Cell wall permeability, NPN; type: cell-based, Staphylococcus aureus; conditions: n = 3
Experimental: The NPN fluorescent probe was used to assess the permeability of cell wall.^[ [64] ^] A logarithmic phase culture of S. aureus ATCC 29213 bacterial solution was diluted to OD600 = 0.2 in a 5 × 10^−3 M HEPES buffer (pH = 7.4 with 5 × 10^−3 M glucose). Following the addition of NPN (final concentration: 10 × 10^−6 M), the mixture was incubated for 30 min in the dark. Subsequently, the bacterial suspension was mixed with an equal volume of nano‐short peptides solution at different concentrations. […] Fluorescence intensity was measured (excitation λ = 350 nm, emission λ = 420 nm) using a microplate reader. The percentage of outer membrane permeability was calculated as: Permeability% = [(F treated – F negative control)/(F positive control – F negative control)] × 100%.

S. aureus ATCC 29213 [2] = assay: Respiratory chain dehydrogenase activity, RT reduction; type: cell-based, Staphylococcus aureus; conditions: 16 × 10^−6 M, S. aureus ATCC 29213, 1.5 h, 37 °C; n = 3
Experimental: (§2) The inhibitory effects of nano‐short peptides on RCD activity in bacteria were evaluated using an RT reduction assay.^[ [58] ^] Logarithmic growth stage E. coli ATCC 25922 and S. aureus ATCC 29213 bacterial solutions were diluted to OD600 = 0.4 in MHB liquid medium. A mixed solution was prepared by combining RT (1 mg mL^−1), glucose (100 × 10^−3 M), and Tris‐HCl buffer (50 × 10^−3 M, pH 8.6) in equal volumes (1:1:1). In 96‐well microplates, serial dilutions of nano‐short peptides were prepared using the mixed solution, followed by addition of an equal volume of bacterial suspension. Following incubation at 37 °C for 1.5 h, the absorbance at 492 nm was measured using a microplate reader, with untreated bacterial suspensions serving as controls.

S. aureus ATCC 29213 [3] = assay: ROS generation, DCFH-DA; type: cell-based, Staphylococcus aureus; conditions: 16 × 10^−6 M, S. aureus ATCC 29213, DCFH-DA, 1 h; n = 3
Experimental: ROS accumulation levels were assessed by the fluorescent probe DCFH‐DA.^[ [63] ^] Logarithmic growth stage E. coli ATCC 25922 and S. aureus ATCC 29213 bacterial solutions were diluted to OD600 = 0.4 in PBS (pH = 7.4, 10 × 10^−3 M), followed by incubation with DCFH‐DA final concentration of 10 × 10^−6 M) for 30 min at 37 °C. Subsequently, the bacterial suspensions were then mixed with different concentrations of nano‐short peptides dilutions in equal volumes in a 96‐well plate and continued to incubate for 1 h (37 °C). Finally, the fluorescence intensity was measured using a microplate reader (excitation λ = 488 nm, emission λ = 525 nm).

S. aureus 29213 = type: cell-based, Staphylococcus aureus
Experimental: as §1

S. aureus 25923 = type: cell-based, Staphylococcus aureus
Experimental: as §1

MRSA 43300 = type: cell-based, Methicillin-Resistant Staphylococcus aureus
Experimental: as §1

S. typhimurium 14028 = type: cell-based, Salmonella typhimurium
Experimental: as §1

S. typhimurium 7731 = type: cell-based, Salmonella typhimurium
Experimental: as §1

P. aeruginosa PAO1 = type: cell-based, Pseudomonas aeruginosa
Experimental: as §1

P. aeruginosa 27853 = type: cell-based, Pseudomonas aeruginosa
Experimental: as §1

[4] = LTA binding, BODIPY-TR-cadaverine displacement; conditions: BC displacement, n = 3
Experimental: The binding ability of nano‐short peptides to LPS and LTA was evaluated using a BODIPY‐TR‐cadaverine (BC) displacement assay.^[ [59] ^] Test solutions containing LPS or LTA (50 µg mL^−1) were pre‐incubated with BC dye (5 µg mL^−1) for 4 h in the dark. Peptide solutions at varying concentrations were then mixed with the LPS or LTA, polymyxin B (final concentration 10 µg mL^−1) was used as a positive control, and LPS or LTA mixed with dye solution was used as a negative control. The fluorescence intensity (excitation λ = 580 nm, emission λ = 620 nm) was measured. %ΔF (au) = [(F treated – F negative control)/(F positive control – F negative control)] × 100%.

S. aureus ATCC 29213 [5] = assay: Intracellular ATP determination; type: cell-based, Staphylococcus aureus; conditions: 16 × 10^−6 M, S. aureus ATCC 29213, 1 h, 37 °C; n = 3
Experimental: The intracellular ATP levels of E. coli ATCC 25922 and S. aureus ATCC 29213 after nano‐short peptides treatment were detected using an Enhanced ATP Assay Kit.^[ [59] ^] Logarithmic growth stage E. coli ATCC 25922 and S. aureus ATCC 29213 bacterial solutions were diluted to OD600 = 0.4 in MHB liquid medium. Then, the bacterial dilutions were co‐incubated with different concentrations of nano‐short peptides at 37 °C for 1 h. After incubation, the bacterial dilutions were centrifuged (12 000 rpm, 5 min, 4 °C) to pellet the cells. The resulting bacterial pellets were processed according to the steps in the kit. Finally, the chemiluminescence was detected by a microplate reader.

E. coli 078 = type: cell-based, Escherichia coli
Experimental: as §1

E. coli ATCC 25922 = assay: Respiratory chain dehydrogenase activity, RT reduction; type: cell-based, Escherichia coli; conditions: 16 × 10^−6 M, E. coli ATCC 25922, 1.5 h, 37 °C; n = 3
Experimental: as §2

S. epidermidis 12228 = type: cell-based, Staphylococcus epidermidis
Experimental: as §1

SMILES | MIC, S. pullorum C7913 (S. pullorum C7913) | cell wall permeabilization, ciprofloxacin as the reference (S. aureus ATCC 29213 [1]; 8 × 10^−6 M) | cell wall permeabilization, ciprofloxacin as the reference (S. aureus ATCC 29213 [1]; 16 × 10^−6 M) | RCD activity reduced to (S. aureus ATCC 29213 [2]) | increase of ROS content vs untreated bacteria (S. aureus ATCC 29213 [3]) | MIC, S. aureus 29213 (S. aureus 29213) | MIC, S. aureus 25923 (S. aureus 25923) | MIC, MRSA 43300 (MRSA 43300) | MIC, S. typhimurium 14028 (S. typhimurium 14028) | MIC, S. typhimurium 7731 (S. typhimurium 7731) | MIC, P. aeruginosa PAO1 (P. aeruginosa PAO1) | MIC, P. aeruginosa 27853 (P. aeruginosa 27853) | LTA binding capacity, % of the antibiotic control ([4]; 8 × 10^−6 M) | LTA binding capacity, % of the antibiotic control ([4]; 16 × 10^−6 M) | ATP levels decreased to (S. aureus ATCC 29213 [5]) | MIC, E. coli 078 (E. coli 078) | RCD activity reduced to (E. coli ATCC 25922) | MIC, S. epidermidis 12228 (S. epidermidis 12228)
N=C(N)NCCC[C@H](NC(=O)[C@@H](CCCNC(=N)N)NC(=O)[C@H](Cc1cccc2ccccc12)NC(=O)[C@H](Cc1cccc2ccccc12)NC(=O)[C@H](Cc1cccc2ccccc12)NC(=O)[C@@H](N)Cc1cccc2ccccc12)C(=O)N[C@@H](CCCNC(=N)N)C(=O)N1CCC[C@H]1C(=O)O (stereo in doubt) [Peptide N4] | 4 µM (≈ 5.49 µg/mL) | 48.48% | 110.54% | 18.84% | 1.83 fold | 4 µM (≈ 5.49 µg/mL) | 4 µM (≈ 5.49 µg/mL) | 4 µM (≈ 5.49 µg/mL) | 8 µM (≈ 11 µg/mL) | 8 µM (≈ 11 µg/mL) | 4 µM (≈ 5.49 µg/mL) | 8 µM (≈ 11 µg/mL) | 65.60% | 73.08% | 10.8% | 8 µM (≈ 11 µg/mL) | 60.10% | 4 µM (≈ 5.49 µg/mL)
CCCCCC(N)C(=O)NC(CCCCC)C(=O)NC(CCCCC)C(=O)NC(CCCCC)C(=O)N[C@H](CCCNC(=N)N)C(=O)N[C@@H](CCCNC(=N)N)C(=O)N[C@@H](CCCNC(=N)N)C(=O)N1CCC[C@H]1C(=O)O (stereo partly drawn) [Peptide B4] (H-[ξAhp(2)][ξAhp(2)][ξAhp(2)][ξAhp(2)][dR]RRP-OH; N-terminus assumed) | 16 µM (≈ 17.5 µg/mL) | 19.49% | 37.80% | 34.12% | 1.38 fold | 16 µM (≈ 17.5 µg/mL) | 32 µM (≈ 35 µg/mL) | 16 µM (≈ 17.5 µg/mL) | 128 µM (≈ 140 µg/mL) | 32 µM (≈ 35 µg/mL) | 256 µM (≈ 280 µg/mL) | 16 µM (≈ 17.5 µg/mL) | 85.77% | 96.79% | 71.18% | 16 µM (≈ 17.5 µg/mL) | 70.75% | 32 µM (≈ 35 µg/mL)
